Structures are written as SMILES.

In the experiment the target is T1, human plasma protein factor Xa (Homo sapiens, UniProt P00742).
T1 construct: measure proteolytic activity of the enzyme (factor Xa); purchased Haematologic Technologies (Essex Junction, Vt.); host or cells: human plasma
T1 sequence (P00742 235-488 limits assumed): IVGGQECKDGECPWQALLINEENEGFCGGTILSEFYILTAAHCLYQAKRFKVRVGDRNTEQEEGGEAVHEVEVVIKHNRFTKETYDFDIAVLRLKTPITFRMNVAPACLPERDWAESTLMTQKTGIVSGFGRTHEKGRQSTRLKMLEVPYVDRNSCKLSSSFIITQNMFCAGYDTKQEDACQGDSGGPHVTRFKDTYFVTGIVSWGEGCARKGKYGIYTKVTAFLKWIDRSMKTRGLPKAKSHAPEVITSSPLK
T1 sequence (P00742 41-179 partner limits assumed): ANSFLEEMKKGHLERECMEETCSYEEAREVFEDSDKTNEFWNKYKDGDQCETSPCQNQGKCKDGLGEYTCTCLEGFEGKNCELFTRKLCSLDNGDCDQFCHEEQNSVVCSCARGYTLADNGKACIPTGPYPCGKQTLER
The experiment can be described thus: Factor Xa IC50 determination: cleavage of paranitroanilide substrate S-2765 in 96-well plates. Format: biochemical. Particulars: fXa 1 nM, S-2765 100 μM, Tris buffered saline pH 7.4, room temperature. The essentials: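 Initial rates of S-2765 (100 μM final) cleavage, read at 405 nm for 2 min, fitted with a four-parameter equation to give IC50. Enzyme: 1 nM human plasma fXa, 5 min room-temperature preincubation with inhibitor (0.01 nM–10 μM) in 20 mM Tris, 150 mM NaCl, 5 mM CaCl2, 0.1% BSA, 5% DMSO, pH 7.4; duplicates.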
Consider `COC(=O)c1ccc(C2=NOC(CNC(=O)c3ccc(Cl)s3)C2)cc1` (stereo not shown) [Example 156, 4-(5-{[(5-Chloro-thiophene-2-carbonyl)-amino]-methyl}-4,5-dihydro-isoxazol-3-yl)-benzoic acid methyl ester], for which the IC50 was no less than 0.5 µM.

Consider `COC(=O)c1ccc(-c2cc(CNC(=O)c3ccc(Cl)s3)on2)cc1` [Example 157, 4-(5-{[(5-Chloro-thiophene-2-carbonyl)-amino]-methyl}-isoxazol-3-yl)-benzoic acid methyl ester], for which the IC50 is no less than 0.5 µM.

`O=C(O)c1ccc(C2=NOC(CNC(=O)c3ccc(Cl)s3)C2)cc1` (stereo not shown) [Example 158, 4-(5-{[(5-Chloro-thiophene-2-carbonyl)-amino]-methyl}-4,5-dihydro-isoxazol-3-yl)-benzoic acid] yielded an IC50 of no less than 0.5 µM.

Consider `O=C(O)c1ccc(-c2cc(CNC(=O)c3ccc(Cl)s3)on2)cc1` [Example 159, 4-(5-{[(5-Chloro-thiophene-2-carbonyl)-amino]-methyl}-isoxazol-3-yl)-benzoic acid], for which the IC50 was no less than 0.5 µM.

`Nc1ccc(C2=NOC(CNC(=O)c3ccc(Cl)s3)C2)cc1` (stereo not shown) [Example 160, 5-Chloro-thiophene-2-carboxylic acid [3-(4-amino-phenyl)-4,5-dihydro-isoxazol-5-ylmethyl]-amide] yielded an IC50 of no less than 0.5 µM.

Regarding `Nc1ccc(-c2cc(CNC(=O)c3ccc(Cl)s3)on2)cc1` [Example 161, 5-Chloro-thiophene-2-carboxylic acid [3-(4-amino-phenyl)-isoxazol-5-ylmethyl]-amide], the IC50 is no more than 0.1 µM.

`CN(C)C(=O)c1ccc(C2=NOC(CNC(=O)c3ccc(Cl)s3)C2)cc1` (stereo not shown) [Example 162, 5-Chloro-thiophene-2-carboxylic acid [3-(4-dimethylcarbamoyl-phenyl)-4,5-dihydro-isoxazol-5-ylmethyl]-amide] registered an IC50 of no more than 0.1 µM.

Molecule `O=C(NCC1CC(c2ccc(C(=O)N3CCC3)cc2)=NO1)c1ccc(Cl)s1` (stereo not shown) [Example 163, 5-Chloro-thiophene-2-carboxylic acid {3-[4-(azetidine-1-carbonyl)-phenyl]-4,5-dihydro-isoxazol-5-ylmethyl}-amide] returned an IC50 of no more than 0.1 µM.

With `O=C(NCC1CC(c2ccc(C(=O)N3CCCC3)cc2)=NO1)c1ccc(Cl)s1` (stereo not shown) [Example 164, 5-Chloro-thiophene-2-carboxylic acid {3-[4-(pyrrolidine-1-carbonyl)-phenyl]-4,5-dihydro-isoxazol-5-ylmethyl}-amide], the IC50 was no more than 0.1 µM.

With `CC1CCCN1C(=O)c1ccc(C2=NOC(CNC(=O)c3ccc(Cl)s3)C2)cc1` (stereo not shown) [Example 165, 5-Chloro-thiophene-2-carboxylic acid {3-[4-(2-methyl-pyrrolidine-1-carbonyl)-phenyl]-4,5-dihydro-isoxazol-5-ylmethyl}-amide], the IC50 was in the range of 0.1 to 0.5 µM.

`CCN(CC)CCN(C)C(=O)c1ccc(C2=NOC(CNC(=O)c3ccc(Cl)s3)C2)cc1` (stereo not shown) [Example 166, 5-Chloro-thiophene-2-carboxylic acid (3-{4-[(2-diethylamino-ethyl)-methyl-carbamoyl]-phenyl}-4,5-dihydro-isoxazol-5-ylmethyl)-amide] registered an IC50 of no more than 0.1 µM.

Regarding `O=C(NCc1cc(-c2ccc(C(=O)N3CCCC3)cc2)no1)c1ccc(Cl)s1` [Example 167, 5-Chloro-thiophene-2-carboxylic acid {3-[4-(pyrrolidine-1-carbonyl)-phenyl]-isoxazol-5-ylmethyl}-amide], the IC50 is 0.1 to 0.5 µM.

Regarding `CCN(CC)CCN(C)C(=O)c1ccc(-c2cc(CNC(=O)c3ccc(Cl)s3)on2)cc1` [Example 168, 5-Chloro-thiophene-2-carboxylic acid (3-{4-[(2-diethylamino-ethyl)-methyl-carbamoyl]-phenyl}-isoxazol-5-ylmethyl)-amide], the IC50 is no less than 0.5 µM.

`CCN1CCC(C2=NOC(CNC(=O)c3ccc(Cl)s3)C2)CC1` (stereo not shown) [Example 169, 5-Chloro-thiophene-2-carboxylic acid [3-(1-ethyl-piperidin-4-yl)-4,5-dihydro-isoxazol-5-ylmethyl]-amide] had an IC50 of no less than 0.5 µM.

In the case of `O=C(NCC1CC(C2CCN(Cc3ccccc3)CC2)=NO1)c1ccc(Cl)s1` (stereo not shown) [Example 170, 5-Chloro-thiophene-2-carboxylic acid [3-(1-benzyl-piperidin-4-yl)-4,5-dihydro-isoxazol-5-ylmethyl]-amide], the IC50 was no less than 0.5 µM.

Regarding `CC(C)N1CCC(C2=NOC(CNC(=O)c3ccc(Cl)s3)C2)CC1` (stereo not shown) [Example 171, 5-Chloro-thiophene-2-carboxylic acid [3-(1-isopropyl-piperidin-4-yl)-4,5-dihydro-isoxazol-5-ylmethyl]-amide], the IC50 is no less than 0.5 µM.

Regarding `N=C(N)N1CCC(C2=NOC(CNC(=O)c3ccc(Cl)s3)C2)CC1` (stereo not shown) [Example 172, 5-Chloro-thiophene-2-carboxylic acid [3-(1-carbamimidoyl-piperidin-4-yl)-4,5-dihydro-isoxazol-5-ylmethyl]-amide], the IC50 is no less than 0.5 µM.

In the case of `CC(=N)N1CCC(C2=NOC(CNC(=O)c3ccc(Cl)s3)C2)CC1` (stereo not shown) [Example 173, 5-Chloro-thiophene-2-carboxylic acid {3-[1-(1-imino-ethyl)-piperidin-4-yl]-4,5-dihydro-isoxazol-5-ylmethyl}-amide], the IC50 is no less than 0.5 µM.

As for `N=C(c1ccccc1)N1CCC(C2=NOC(CNC(=O)c3ccc(Cl)s3)C2)CC1` (stereo not shown) [Example 174, 5-Chloro-thiophene-2-carboxylic acid {3-[1-(imino-phenyl-methyl)-piperidin-4-yl]-4,5-dihydro-isoxazol-5-ylmethyl}-amide], the IC50 is no less than 0.5 µM.

Turning to `N=C(c1ccccn1)N1CCC(C2=NOC(CNC(=O)c3ccc(Cl)s3)C2)CC1` (stereo not shown) [Example 175, 5-Chloro-thiophene-2-carboxylic acid {3-[1-(imino-pyridin-2-yl-methyl)-piperidin-4-yl]-4,5-dihydro-isoxazol-5-ylmethyl}-amide], the IC50 is no less than 0.5 µM.

For `O=C(NCc1cc(C2CCNCC2)no1)c1ccc(Cl)s1` [Example 176, 5-Chloro-thiophene-2-carboxylic acid (3-piperidin-4-yl-isoxazol-5-ylmethyl)-amide], the IC50 is no less than 0.5 µM.

Regarding `CCN1CCC(c2cc(CNC(=O)c3ccc(Cl)s3)on2)CC1` [Example 177, 5-Chloro-thiophene-2-carboxylic acid [3-(1-ethyl-piperidin-4-yl)-isoxazol-5-ylmethyl]-amide], the IC50 was no less than 0.5 µM.

Molecule `O=C(NCc1cc(C2CCN(Cc3ccccc3)CC2)no1)c1ccc(Cl)s1` [Example 178, 5-Chloro-thiophene-2-carboxylic acid [3-(1-benzyl-piperidin-4-yl)-isoxazol-5-ylmethyl]-amide] displayed an IC50 of no less than 0.5 µM.

Molecule `N=C(N)N1CCC(c2cc(CNC(=O)c3ccc(Cl)s3)on2)CC1` [Example 179, 5-Chloro-thiophene-2-carboxylic acid [3-(1-carbamimidoyl-piperidin-4-yl)-isoxazol-5-ylmethyl]-amide] showed an IC50 of no less than 0.5 µM.

`CC(=N)N1CCC(c2cc(CNC(=O)c3ccc(Cl)s3)on2)CC1` [Example 180, 5-Chloro-thiophene-2-carboxylic acid {3-[1-(1-imino-ethyl)-piperidin-4-yl]-isoxazol-5-ylmethyl}-amide] yielded an IC50 of no less than 0.5 µM.

As to `N=C(c1ccccc1)N1CCC(c2cc(CNC(=O)c3ccc(Cl)s3)on2)CC1` [Example 181, 5-Chloro-thiophene-2-carboxylic acid {3-[1-(imino-phenyl-methyl)-piperidin-4-yl]-isoxazol-5-ylmethyl}-amide], the IC50 was no less than 0.5 µM.

With `O=Cc1ccccc1-c1ccc(C2=NOC(CNC(=O)c3ccc(Cl)s3)C2)cc1` (stereo not shown) [Example 183, 5-Chloro-thiophene-2-carboxylic acid [3-(2′-formyl-biphenyl-4-yl)-4,5-dihydro-isoxazol-5-ylmethyl]-amide], the IC50 was no less than 0.5 µM.

On to `O=C(NCC1CC(c2ccc(-c3ccccc3Cl)cc2)=NO1)c1ccc(Cl)s1` (stereo not shown) [Example 184, 5-Chloro-thiophene-2-carboxylic acid [3-(2′-chloro-biphenyl-4-yl)-4,5-dihydro-isoxazol-5-ylmethyl]-amide], for which the IC50 is no less than 0.5 µM.

In turn, `CSc1ccccc1-c1ccc(C2=NOC(CNC(=O)c3ccc(Cl)s3)C2)cc1` (stereo not shown) [Example 185, 5-Chloro-thiophene-2-carboxylic acid [3-(2′-methylsulfanyl-biphenyl-4-yl)-4,5-dihydro-isoxazol-5-ylmethyl]-amide] registered an IC50 of no less than 0.5 µM.

`Nc1ccccc1-c1ccc(C2=NOC(CNC(=O)c3ccc(Cl)s3)C2)cc1` (stereo not shown) [Example 186, 5-Chloro-thiophene-2-carboxylic acid [3-(2′-amino-biphenyl-4-yl)-4,5-dihydro-isoxazol-5-ylmethyl]-amide] came in with an IC50 of 0.1 to 0.5 µM.

The molecule `O=C(NCC1CC(c2ccc(-c3ccccc3C(F)(F)F)cc2)=NO1)c1ccc(Cl)s1` (stereo not shown) [Example 187, 5-Chloro-thiophene-2-carboxylic acid [3-(2′-trifluoromethyl-biphenyl-4-yl)-4,5-dihydro-isoxazol-5-ylmethyl]-amide] yielded an IC50 of 0.1 to 0.5 µM.

Take `COc1ccccc1-c1ccc(C2=NOC(CNC(=O)c3ccc(Cl)s3)C2)cc1` (stereo not shown) [Example 188, 5-Chloro-thiophene-2-carboxylic acid [3-(2′-methoxy-biphenyl-4-yl)-4,5-dihydro-isoxazol-5-ylmethyl]-amide]: the IC50 lay in the range of 0.1 to 0.5 µM.

Take `COCc1ccccc1-c1ccc(-c2cc(CNC(=O)c3ccc(Cl)s3)on2)cc1` [Example 189, 5-Chloro-thiophene-2-carboxylic acid [3-(2′-methoxymethyl-biphenyl-4-yl)-isoxazol-5-ylmethyl]-amide]: the IC50 was 0.1 to 0.5 µM.

Regarding `O=C(NCC1CC(c2ccc(-c3cccnc3)cc2)=NO1)c1ccc(Cl)s1` (stereo not shown) [Example 190, 5-Chloro-thiophene-2-carboxylic acid [3-(4-pyridin-3-yl-phenyl)-4,5-dihydro-isoxazol-5-ylmethyl]-amide], the IC50 was in the range of 0.1 to 0.5 µM.

In general, IC50 refers to the concentration that inhibits the measured activity by half.

Source of the values: patent US8377974B2 (Millennium Pharmaceuticals, Inc., priority 2004, dated 2013).
